One experiment has as its system Target C mRNA. The experiment can be described thus: Gene panel canonical junction qPCR assay, Target C CJ mRNA decrease. It is filed as cell-based. Particulars: Homo sapiens, canonical junction qPCR, read-out: Target C IC50 (decrease in CJ mRNA levels). In a few lines: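 IC50 values describe loss of canonical-junction transcript, fitted by 4-parameter logistic to percent response derived from fixed ΔCt windows. Read-out: RT-qPCR on lysates of compound-treated K562 or A673 cells, probes overlapping the exon junction, ΔΔCt versus housekeeping gene and DMSO control.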
A general note: In qPCR the cycle at which signal appears reflects the starting amount.

In another experiment the test system is HiBiT-tagged HTT protein. The experiment can be described thus: HiBiT protein abundance assay, HTT (K562 HiBiT knock-in cells). The class given is cell-based, human. The conditions noted are these: 24 hours. A digest of the protocol: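 Luminescent readout of HiBiT-tagged endogenous protein after lysis, following 24 h compound exposure of knock-in K562 lines at 37 °C. Ten 3-fold concentrations from 10 μM final, DMSO ≤0.25%. Four-parameter logistic fit of normalized response gives concentration halving abundance (IC50).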
(In general: With HiBiT, luminescence reflects the tagged protein that the partner subunit can reach.)

We go through nine compounds from patent publication US20240409536A1, “COMPOUNDS AND METHODS FOR MODULATING SPLICING” (REMIX THERAPEUTICS INC., priority 2021, published 2024).

Usually IC50 stands for the concentration at which inhibition is half-maximal.

As for `CNC1CCN(c2ccc(C(=O)Nc3cc(F)c4nc(C)cn4c3)c3ncc(OC)nc23)C1` (stereo in doubt) [Compound 227, (R)—N-(8-fluoro-2-methylimidazo[1,2-a]pyridin-6-yl)-2-methoxy-8-(3-(methylamino)pyrrolidin-1-yl)quinoxaline-5-carboxamide 2,2,2-trifluoroacetate], the IC50 was > 10 µM in the experiment with Target C mRNA and 1 to 10 µM with HiBiT-tagged HTT protein.

As to `Cc1cn2cc(NC(=O)c3ccc(N4CCC(NC(C)(C)C)C4)c4ccnnc34)cc(F)c2n1` (centres unmarked) [Compound 109], the IC50 in the experiment on HiBiT-tagged HTT protein lay within 1 to 10 µM.

Turning to `Cc1cnc2c(C(=O)Nc3cc(F)c4nc(C)cn4c3)ccc(N3C[C@@H](C)N[C@@H](C)C3)c2n1` [Compound 217, 8-((3R,5S)-3,5-dimethylpiperazin-1-yl)-N-{8-fluoro-2-methylimidazo[1,2-a]pyridin-6-yl}-2-methylquinoxaline-5-carboxamide], the IC50 in the experiment on Target C mRNA and with HiBiT-tagged HTT protein was 0.1 to 1 µM each time.

On to `CCNC1CCN(c2ccc(C(=O)Nc3cc(F)c4nc(C)cn4c3)c3nc(C)ccc23)CC1` [Compound 228, 5-[4-(ethylamino)piperidin-1-yl]-N-{8-fluoro-2-methylimidazo[1,2-a]pyridin-6-yl}-2-methylquinoline-8-carboxamide], for which the IC50 in the experiment on Target C mRNA and in the experiment with HiBiT-tagged HTT protein was 0.1 to 1 µM in each case.

Consider `COCCOc1ccc2c(N3CCC(N(C)C)CC3)ccc(C(=O)Nc3cc(F)c4nc(C)cn4c3)c2n1` [Compound 229, 5-[4-(dimethylamino)piperidin-1-yl]-N-{8-fluoro-2-methylimidazo[1,2-a]pyridin-6-yl}-2-(2-methoxyethoxy)quinoline-8-carboxamide], for which the IC50 in the experiment with Target C mRNA and in the experiment with HiBiT-tagged HTT protein was > 10 µM each time.

As to `Cc1cn2cc(NCc3ccc(N4CCNCC4)c4ccnnc34)cc(F)c2n1` [Compound 230, 8-fluoro-2-methyl-N-{[5-(piperazin-1-yl)cinnolin-8-yl]methyl}imidazo[1,2-a]pyridin-6-amine], the IC50 with Target C mRNA and in the experiment on HiBiT-tagged HTT protein was > 10 µM each time.

For the compound `CNC1CCN(c2ccc(C(=O)Nc3cc(F)c4nc(C)cn4c3)c3nnccc23)C1` (centres unmarked) [Compound 231, N-{8-fluoro-2-methylimidazo[1,2-a]pyridin-6-yl}-5-[3-(methylamino)pyrrolidin-1-yl] cinnoline-8-carboxamide], the IC50 in the experiment with Target C mRNA was > 10 µM; in the experiment with HiBiT-tagged HTT protein it was 1 to 10 µM.

Turning to `COCCOc1ccc2c(N3C[C@@H](C)N[C@@H](C)C3)ccc(C(=O)Nc3cc(F)c4nc(C)cn4c3)c2n1` [Compound 232, 5-[(3R,5S)-3,5-dimethylpiperazin-1-yl]-N-{8-fluoro-2-methylimidazo[1,2-a]pyridin-6-yl}-2-(2-methoxyethoxy)quinoline-8-carboxamide], the IC50 in the experiment on Target C mRNA and in the experiment on HiBiT-tagged HTT protein was 1 to 10 µM each time.

Take `CCNC1CCN(c2ccc(C(=O)Nc3cc(F)c4nc(C)cn4c3)c3nc(OCCOC)ccc23)CC1` [Compound 233, 5-[4-(ethylamino)piperidin-1-yl]-N-{8-fluoro-2-methylimidazo[1,2-a]pyridin-6-yl}-2-(2-methoxyethoxy)quinoline-8-carboxamide]: the IC50 in the experiment on Target C mRNA and in the experiment with HiBiT-tagged HTT protein was 1 to 10 µM in each case.
